US20190135747A1, “INDOLE AND INDAZOLE CYANOCINNAMATE COMPOUNDS AND THERAPEUTIC USES THEREOF” (Regents of the University of Minnesota, priority 2016, published 2019)

Key:
Assay type in all cases: cell-based
[1] = system: MDA-MB-231 (MCT4 expressing human triple negative breast cancer cell line); test: MTT in vitro cytotoxicity assay, MDA-MB-231; details: MDA-MB-231 cells
Procedure: (§1) Cell line MDA-MB-231 (MCT4 expressing human triple negative breast cancer cell line), cell line MCF-7 (MCT1 expressing estrogen receptor positive human breast cancer cell line), and cell line 4T1 (MCT1 expressing metastatic murine breast cancer cell line) were used for testing the in vitro cytotoxicity of compounds 1-d, 2, and 3 using the MTT assay available from ThermoFisher Scientific. In addition, Compounds 1-d, 2, and 3 were also evaluated for MCT1 inhibition activity in RBE4 (MCT1 expressing rat brain endothelial 4 cell line) and MCT4 inhibition activity in MDA-MB-231 cell lines by measuring the IC50 values using the MCT lactate inhibition assays (Gurrapu S, Jonnalagadda S K, Alam M A, Nelson G L, Sneve M G, Drewes L R, Venkatram R. Mereddy. Monocarboxylate transporter 1 inhibitors as potential anti-cancer agents. ACS. Med. Chem. Lett., 2015, 6, 558-561.).

[2] = target: T1, MCT1 (Rattus norvegicus, UniProt P53987); test: MCT lactate inhibition assay, MCT1 in RBE4; details: RBE4 rat brain endothelial cells
T1 construct: endogenous in cells; host or cells: RBE4 rat brain endothelial cells
T1 sequence (P53987 1-494): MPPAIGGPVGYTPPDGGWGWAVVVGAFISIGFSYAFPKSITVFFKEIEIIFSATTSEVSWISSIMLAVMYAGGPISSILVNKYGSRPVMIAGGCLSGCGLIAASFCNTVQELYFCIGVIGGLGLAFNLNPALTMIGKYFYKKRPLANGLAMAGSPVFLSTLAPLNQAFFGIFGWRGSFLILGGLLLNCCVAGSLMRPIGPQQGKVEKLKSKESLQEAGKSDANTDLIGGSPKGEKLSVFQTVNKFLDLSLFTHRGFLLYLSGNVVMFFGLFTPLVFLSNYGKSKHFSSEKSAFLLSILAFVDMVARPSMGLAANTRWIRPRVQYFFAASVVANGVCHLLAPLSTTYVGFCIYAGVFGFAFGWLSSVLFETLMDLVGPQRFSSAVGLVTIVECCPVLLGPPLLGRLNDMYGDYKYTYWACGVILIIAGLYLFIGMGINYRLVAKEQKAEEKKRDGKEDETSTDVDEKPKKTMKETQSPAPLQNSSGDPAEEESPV
T1 sequence (P26453 140-388 partner limits assumed): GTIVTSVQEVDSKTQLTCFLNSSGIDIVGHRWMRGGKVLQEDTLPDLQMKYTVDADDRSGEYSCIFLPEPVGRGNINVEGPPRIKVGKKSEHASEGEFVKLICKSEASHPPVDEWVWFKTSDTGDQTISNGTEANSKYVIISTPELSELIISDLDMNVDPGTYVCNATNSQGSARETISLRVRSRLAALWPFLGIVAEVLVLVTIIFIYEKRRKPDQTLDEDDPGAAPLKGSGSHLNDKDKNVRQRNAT
Procedure: as §1

[3] = target: T2, MCT4 (Homo sapiens, UniProt O15427); test: MCT lactate inhibition assay, MCT4 in MDA-MB-231; details: MDA-MB-231 cells
T2 construct: Cell line MDA-MB-231 (MCT4 expressing human triple negative breast cancer cell line); endogenous in cells; host or cells: MDA-MB-231 human triple negative breast cancer cells
T2 sequence (O15427 2-465 limits assumed): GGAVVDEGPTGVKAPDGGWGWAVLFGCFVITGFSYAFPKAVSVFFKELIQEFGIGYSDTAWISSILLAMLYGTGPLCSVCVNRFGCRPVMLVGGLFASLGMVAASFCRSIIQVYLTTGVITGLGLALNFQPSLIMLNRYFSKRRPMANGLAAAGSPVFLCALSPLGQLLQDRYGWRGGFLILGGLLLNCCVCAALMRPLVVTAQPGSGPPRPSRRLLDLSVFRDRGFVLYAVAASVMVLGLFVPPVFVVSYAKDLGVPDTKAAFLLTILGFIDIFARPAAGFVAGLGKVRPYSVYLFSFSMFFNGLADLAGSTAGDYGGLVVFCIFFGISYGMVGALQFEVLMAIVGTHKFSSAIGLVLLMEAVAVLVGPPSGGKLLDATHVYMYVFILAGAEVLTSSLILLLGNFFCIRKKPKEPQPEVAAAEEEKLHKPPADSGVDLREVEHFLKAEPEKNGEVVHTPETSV
T2 sequence (P35613 140-385 partner limits assumed): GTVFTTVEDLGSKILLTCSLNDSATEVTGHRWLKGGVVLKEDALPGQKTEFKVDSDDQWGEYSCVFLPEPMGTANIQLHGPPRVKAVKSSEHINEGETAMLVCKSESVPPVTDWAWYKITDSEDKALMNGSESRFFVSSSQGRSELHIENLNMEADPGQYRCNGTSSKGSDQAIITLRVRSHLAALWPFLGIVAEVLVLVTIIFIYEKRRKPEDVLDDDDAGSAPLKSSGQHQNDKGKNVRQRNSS
Procedure: as §1

[4] = system: 4T1 (MCT1 expressing metastatic murine breast cancer cell line); test: MTT in vitro cytotoxicity assay, 4T1; details: Mus musculus, 4T1 cells
Procedure: as §1

[5] = system: MCF-7 (MCT1 expressing estrogen receptor positive human breast cancer cell line); test: MTT in vitro cytotoxicity assay, MCF-7; details: MCF7, MCF-7 cells
Procedure: as §1

IC50 [2] [µM]	IC50 [3] [µM]	SMILES	IC50 [1] [µM]	IC50 [4] [µM]	IC50 [5] [µM]
0.07 ± 0.02	0.02 ± 0.01	CN(C)c1ccc(-n2cc(/C=C(\C#N)C(=O)O)c3ccccc32)cc1 [Compound 1-d]	> 250	65.4 ± 4.26	> 250
0.47 ± 0.05	0.57 ± 0.05	N#C/C(=C\c1cn(-c2ccc(NC(=O)Nc3ccc(Cl)c(C(F)(F)F)c3)cc2)c2ccccc12)C(=O)O [Compound 2]	88.1 ± 17.2	76.5 ± 4.86	41.6 ± 20.8
0.11	0.14 ± 0.04	N#C/C(=C\c1cn(-c2ccc(NC(=O)c3ccc(NC(=O)Nc4ccc(Cl)c(C(F)(F)F)c4)cc3)cc2)c2ccccc12)C(=O)O [Compound 3]	> 250	> 250	> 250
